From patent publication US10385070B2, “Chroman-spirocyclic piperidine amides as modulators of ion channels” (VERTEX PHARMACEUTICALS INCORPORATED, priority 2011, dated 2019)

target: human NaV subtype, like NaV 1.7 (Homo sapiens, UniProt Q15858); assay: E-VIPR optical membrane potential assay with electrical stimulation; format: cell-based; conditions: active against one or more sodium channels; assay and NaV subtype not specified for Table 3; read-out: IC50 Binned Activity Data
From the text: Assays for Detecting and Measuring NaV Inhibition Properties of Compound E-VIPR Optical Membrane Potential Assay Method with Electrical Stimulation
Sodium channels are voltage-dependent proteins that can be activated by inducing membrane voltage changes by applying electric fields. The electrical stimulation instrument and methods of use are described in Ion Channel Assay Methods PCT/US01/21652, herein incorporated by reference and are referred to as E-VIPR. The instrument comprises a microtiter plate handler, an optical system for exciting the coumarin dye while simultaneously recording the coumarin and oxonol emissions, a waveform generator, a current- or voltage-controlled amplifier, and a device for inserting electrodes in well. Under integrated computer control, this instrument passes user-programmed electrical stimulus protocols to cells within the wells of the microtiter plate.
24 hours before the assay on E-VIPR, HEK cells expressing human NaV subtype, like NaV 1.7, are seeded in 384-well poly-lysine coated plates at 15,000-20,000 cells per well. Other subtypes are performed in an analogous mode in a cell line expressing the NaV of interest. HEK cells are grown in media (exact composition is specific to each cell type and NaV subtype) supplemented with 10% FBS (Fetal Bovine Serum, qualified; GibcoBRL #16140-071) and 1% Pen-Strep (Penicillin-Streptomycin; GibcoBRL #15140-122). Cells are grown in vented cap flasks, in 90% humidity and 10% CO2, to 100% confluence. They are usually split by trypsinization 1:10 or 1:20, depending on scheduling needs, and grown for 2-3 days before the next split.
100 mg/mL Pluronic F-127 (Sigma #P2443), in dry DMSO
Compound Plates: 384-well round bottom plate, e.g. Corning 384-well Polypropylene Round Bottom #3656
Cell Plates: 384-well tissue culture treated plate, e.g. Greiner #781091-1B
Bath1 buffer. Glucose 10 mM (1.8 g/L), Magnesium Chloride (Anhydrous), 1 mM (0.095 g/L), Calcium Chloride, 2 mM (0.222 g/L), HEPES 10 mM (2.38 g/L), Potassium Chloride, 4.5 mM (0.335 g/L), Sodium Chloride 160 mM (9.35 g/L).
Hexyl Dye Solution: Bath1 Buffer+0.5% β-cyclodextrin (make this prior to use, Sigma #C4767), 8 μM CC2-DMPE+2.5 μM DiSBAC6(3). To make the solution Add volume of 10% Pluronic F127 stock equal to volumes of CC2-DMPE+DiSBAC6(3). The order of preparation is first mix Pluronic and CC2-DMPE, then add DiSBAC6(3) while vortexing, then add Bath1+β-Cyclodextrin.
1) Pre-spot compounds (in neat DMSO) into compound plates. Vehicle control (neat DMSO), the positive control (20 mM DMSO stock tetracaine, 125 μM final in assay) and test compounds are added to each well at 160× desired final concentration in neat DMSO. Final compound plate volume will be 80 μL (80-fold intermediate dilution from 1 μL DMSO spot; 160-fold final dilution after transfer to cell plate). Final DMSO concentration for all wells in assay is 0.625%.
2) Prepare Hexyl Dye Solution.
3) Prepare cell plates. On the day of the assay, medium is aspirated and cells are washed three times with 100 μL of Bath1 Solution, maintaining 25 μL residual volume in each well.
4) Dispense 25 μL per well of Hexyl Dye Solution into cell plates. Incubate for 20-35 minutes at room temp or ambient conditions.
5) Dispense 80 μL per well of Bath1 into compound plates. Acid Yellow-17 (1 mM) is added and Potassium Chloride can be altered from 4.5 to 20 mM depending on the NaV subtype and assay sensitivity.
6) Wash cell plates three times with 100 μL per well of Bath1, leaving 25 μL of residual volume. Then transfer 25 uL per well from Compound Plates to Cell Plates. Incubate for 20-35 minutes at room temp/ambient condition
7) Read Plate on E-VIPR. Use the current-controlled amplifier to deliver stimulation wave pulses for typically 9 seconds and a scan rate of 400 Hz. A pre-stimulus recording is performed for 0.5 seconds to obtain the un-stimulated intensities baseline. […]

Chain of human NaV subtype, like NaV 1.7 (Q15858 whole entry): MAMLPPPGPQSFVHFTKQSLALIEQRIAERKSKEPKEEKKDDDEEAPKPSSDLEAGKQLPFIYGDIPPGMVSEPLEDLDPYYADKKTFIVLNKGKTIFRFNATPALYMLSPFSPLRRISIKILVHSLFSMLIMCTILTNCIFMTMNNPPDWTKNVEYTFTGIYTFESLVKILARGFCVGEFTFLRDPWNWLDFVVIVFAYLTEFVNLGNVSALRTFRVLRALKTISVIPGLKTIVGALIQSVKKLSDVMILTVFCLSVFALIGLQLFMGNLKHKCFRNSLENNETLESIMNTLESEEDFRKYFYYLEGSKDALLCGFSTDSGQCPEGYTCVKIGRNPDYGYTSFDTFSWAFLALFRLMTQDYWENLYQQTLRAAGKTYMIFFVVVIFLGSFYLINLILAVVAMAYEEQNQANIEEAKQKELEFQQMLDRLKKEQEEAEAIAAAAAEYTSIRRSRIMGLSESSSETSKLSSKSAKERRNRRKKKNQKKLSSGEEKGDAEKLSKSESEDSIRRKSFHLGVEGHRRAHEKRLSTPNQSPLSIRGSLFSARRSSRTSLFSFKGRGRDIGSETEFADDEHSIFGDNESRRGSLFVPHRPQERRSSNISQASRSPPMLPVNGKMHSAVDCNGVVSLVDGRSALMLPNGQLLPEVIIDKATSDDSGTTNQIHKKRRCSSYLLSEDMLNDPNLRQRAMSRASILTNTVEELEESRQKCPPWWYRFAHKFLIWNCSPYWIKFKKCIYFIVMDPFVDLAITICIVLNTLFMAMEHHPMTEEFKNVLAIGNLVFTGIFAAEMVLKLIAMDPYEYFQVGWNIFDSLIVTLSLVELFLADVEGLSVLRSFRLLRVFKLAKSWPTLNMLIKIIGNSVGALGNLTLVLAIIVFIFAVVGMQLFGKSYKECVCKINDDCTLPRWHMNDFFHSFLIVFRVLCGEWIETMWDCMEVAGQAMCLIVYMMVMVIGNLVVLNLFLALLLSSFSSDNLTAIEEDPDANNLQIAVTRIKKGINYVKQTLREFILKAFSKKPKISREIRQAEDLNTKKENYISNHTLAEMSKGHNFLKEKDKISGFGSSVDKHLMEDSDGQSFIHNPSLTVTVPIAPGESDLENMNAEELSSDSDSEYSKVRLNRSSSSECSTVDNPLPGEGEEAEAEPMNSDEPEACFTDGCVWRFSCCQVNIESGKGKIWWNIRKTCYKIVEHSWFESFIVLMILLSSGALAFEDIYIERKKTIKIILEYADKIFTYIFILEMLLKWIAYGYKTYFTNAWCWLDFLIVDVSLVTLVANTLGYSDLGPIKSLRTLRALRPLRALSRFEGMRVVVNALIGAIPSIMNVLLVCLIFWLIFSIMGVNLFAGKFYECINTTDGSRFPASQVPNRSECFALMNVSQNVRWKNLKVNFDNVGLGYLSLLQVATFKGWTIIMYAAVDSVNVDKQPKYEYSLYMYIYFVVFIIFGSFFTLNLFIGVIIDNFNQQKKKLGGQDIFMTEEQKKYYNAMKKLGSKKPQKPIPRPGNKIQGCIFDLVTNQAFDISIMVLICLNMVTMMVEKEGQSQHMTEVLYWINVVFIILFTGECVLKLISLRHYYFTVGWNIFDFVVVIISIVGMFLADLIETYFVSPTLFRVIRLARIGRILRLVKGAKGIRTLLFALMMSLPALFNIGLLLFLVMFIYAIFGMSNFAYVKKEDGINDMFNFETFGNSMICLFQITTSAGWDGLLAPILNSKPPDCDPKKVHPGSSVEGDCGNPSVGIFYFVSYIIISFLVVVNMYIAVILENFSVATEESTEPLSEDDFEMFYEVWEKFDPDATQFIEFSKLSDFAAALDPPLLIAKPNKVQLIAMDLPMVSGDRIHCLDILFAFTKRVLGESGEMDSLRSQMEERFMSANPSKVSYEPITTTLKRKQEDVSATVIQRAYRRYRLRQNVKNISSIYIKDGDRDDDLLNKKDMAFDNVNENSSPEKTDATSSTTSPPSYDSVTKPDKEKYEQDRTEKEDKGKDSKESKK

SMILES	IC50 [nM]
COc1ccc(C(=O)N2CCC3(CC2)CC(c2ccccc2)c2ccccc2O3)cc1OC (centres unmarked) [Compound 18]	≤ 2000
COc1cc(C(=O)N2CCC3(CC2)CC(Oc2cncc(C#N)c2)c2ccccc2O3)ccc1OC(C)C (centres unmarked) [Compound 3]	≤ 2000
Cc1cc(C(=O)N2CCC3(CC2)CC(OC(C)C)c2cc(C#N)ccc2O3)ccc1C(C)(C)O (centres unmarked) [Compound 43]	≤ 2000
CNCc1cc(C(=O)N2CCC3(CC2)C[C@@H](OC(C)C)c2cc(F)ccc2O3)ccc1OC(C)C [Compound 15]	> 5000
CC(C)OCC1CC2(CCN(C(=O)c3ccc(OC(C)C)c(CO)c3)CC2)Oc2ccccc21 (centres unmarked) [Compound 108]	≤ 2000
Cc1cc(S(C)(=O)=O)ccc1C(=O)N1CCC2(CC1)C[C@@H](OC(C)C)c1cc(F)ccc1O2 [Compound 85]	2000 to 5000
CC(C)O[C@@H]1CC2(CCN(C(=O)c3ccc(S(=O)(=O)C(F)F)cc3)CC2)Oc2ccc(F)cc21 [Compound 110]	≤ 2000
COc1cc(C(=O)N2CCC3(CC2)C[C@@H](OC(C)C)c2cc(F)ccc2O3)ccc1C(C)(C)O [Compound 10]	≤ 2000
Cc1cc(C(=O)N2CCC3(CC2)C[C@H](O)c2cc(F)ccc2O3)ccc1OC(C)C [Compound 77]	≤ 2000
CC(C)Oc1ccc(C(=O)N2CCC3(CC2)CC(OC(C)C)c2ccccc2S3(=O)=O)cc1 (centres unmarked) [Compound 99]	≤ 2000
COc1cc(O)ccc1C(=O)N1CCC2(CC1)C[C@H](OC(C)C)c1ccccc1O2 [Compound 144]	≤ 2000
CC(C)O[C@@H]1CC2(CCN(C(=O)c3ccc(C(C)(C)O)c(F)c3)CC2)Oc2ccccc21 [Compound 31]	≤ 2000
CC(C)Oc1ccc(C(=O)N2CCC3(CC2)C[C@@H](OC(C)C)c2ccccc2O3)cc1O [Compound 91]	≤ 2000
CCc1ccc(C(=O)N2CCC3(CC2)C[C@@H](OC(C)C)c2cc(F)ccc2O3)nc1 [Compound 111]	> 5000
CC(C)Oc1ccc(C(=O)N2CCC3(CC2)C[C@@H](OC(C)C)c2ccccc2O3)cc1F [Compound 140]	≤ 2000
CC1CCN(c2ccc(C(=O)N3CCC4(CC3)C[C@@H](OC(C)C)c3cc(F)ccc3O4)nc2)CC1 [Compound 61]	≤ 2000
CC(C)O[C@@H]1CC2(CCN(C(=O)c3ccc(S(=O)(=O)C(C)C)cn3)CC2)Oc2ccc(F)cc21 [Compound 175]	≤ 2000
Cc1cc(C(=O)N2CCC3(CC2)CC(OC(C)C)c2nn(C)cc2O3)ccc1OC(C)C (centres unmarked) [Compound 104]	≤ 2000
Cc1cc(C(=O)N2CCC3(CC2)C[C@@H](OC(C)C)c2cc(F)ccc2O3)ccc1OC1COC1 [Compound 92]	≤ 2000
COc1cc(C(=O)N2CCC3(CC2)CC(CSC)c2ccccc2O3)ccc1OC(C)C (centres unmarked) [Compound 83]	≤ 2000
COc1cc(C(=O)N2CCC3(CC2)CC(Cn2cccn2)c2ccccc2O3)ccc1OC(C)C (centres unmarked) [Compound 143]	≤ 2000
CC(C)O[C@@H]1CC2(CCN(C(=O)c3ccc(N4CCC[C@@H]4C)cn3)CC2)Oc2ccc(F)cc21 [Compound 67]	≤ 2000
COc1cc(C(=O)N2CCC3(CC2)C[C@@H](OC(C)C)c2cc(F)ccc2O3)ccc1OCCO [Compound 117]	≤ 2000
COc1cc(C(=O)N2CCC3(CC2)C[C@H](OC(C)C)c2ccccc2O3)ccc1OCCCO [Compound 106]	≤ 2000
CC(C)Oc1ccc(C(=O)N2CCC3(CC2)C[C@@H](OC(C)C)c2cc(F)ccc2O3)cc1CN(C)C [Compound 173]	≤ 2000
COc1cc(C(=O)N2CCC3(CC2)C[C@@H](OC(C)C)c2cc(F)ccc2O3)ccc1O[C@@H]1CCOC1 [Compound 155]	≤ 2000
CC(C)O[C@@H]1CC2(CCN(C(=O)c3cccc4cccnc34)CC2)Oc2ccccc21 [Compound 14]	≤ 2000

SMILES	IC50 [nM]
Cc1cc(C(=O)N2CCC3(CC2)C[C@@H](OC(C)C)c2cc(F)ccc2O3)ccc1S(C)(=O)=O [Compound 156]	≤ 2000
COc1cc(C(=O)N2CCC3(CC2)C[C@@H](OC(C)C)c2ccccc2O3)ccc1OCCCO [Compound 116]	2000 to 5000
CC(C)O[C@@H]1CC2(CCN(C(=O)c3ccc4[nH]ncc4c3)CC2)Oc2ccccc21 [Compound 28]	2000 to 5000
CC(C)O[C@H]1CC2(CCN(C(=O)c3ccc4c(cnn4C)c3)CC2)Oc2ccccc21 [Compound 123]	2000 to 5000
CCOc1ccc(C(=O)N2CCC3(CC2)C[C@@H](OC(C)C)c2cc(F)ccc2O3)nc1 [Compound 129]	2000 to 5000
Cc1cc(C(F)F)n2ncc(C(=O)N3CCC4(CC3)C[C@@H](OC(C)C)c3ccccc3O4)c2n1 [Compound 87]	≤ 2000
COc1cc(C(=O)N2CCC3(CCc4ccccc4O3)CC2)ccc1OC(C)C [Compound 162]	2000 to 5000
CC[C@@H](C)Nc1ccc(C(=O)N2CCC3(CC2)C[C@@H](OC(C)C)c2cc(F)ccc2O3)nc1 [Compound 66]	≤ 2000
CC(C)O[C@H]1CC2(CCN(C(=O)c3ccc4[nH]ncc4c3)CC2)Oc2ccccc21 [Compound 65]	2000 to 5000
COc1cc(C(=O)N2CCC3(CC2)CC(OC(C)(C)C)c2ccccc2O3)ccc1OC(C)C (centres unmarked) [Compound 128]	≤ 2000
CC(C)OC1CC2(CCN(C(=O)c3ccc(S(=O)(=O)CC4CC4)cn3)CC2)Oc2ccc(F)cc21 (centres unmarked) [Compound 30]	2000 to 5000
COCC1CC2(CCN(C(=O)c3ccc(OC(C)C)c(OC)c3)CC2)Oc2ccccc21 (centres unmarked) [Compound 168]	≤ 2000
COc1cc(C(=O)N2CCC3(CC2)C[C@@H](OC(C)C)c2ccccc2O3)ccc1OC(F)F [Compound 70]	2000 to 5000
CC(C)O[C@@H]1CC2(CCN(C(=O)c3ccc(C(C)(C)O)c(F)c3)CC2)Oc2ccc(F)cc21 [Compound 48]	≤ 2000
CC(C)OC1CC2(CCN(C(=O)c3ccccc3OC(F)(F)F)CC2)Oc2ccccc21 (centres unmarked) [Compound 157]	≤ 2000
Cc1cc(C(=O)N2CCC3(CC2)CC(OC(C)C)c2cnccc2O3)ccc1OC(C)C (centres unmarked) [Compound 89]	2000 to 5000
COc1cc(C(=O)N2CCC3(CC2)CC(OCCS(C)(=O)=O)c2ccccc2O3)ccc1OC(C)C (centres unmarked) [Compound 86]	> 5000
COc1cc(C(=O)N2CCC3(CC2)CC(C(C)OC)c2ccccc2O3)ccc1OC(C)C (centres unmarked) [Compound 6]	≤ 2000
COc1cc(C(=O)N2CCC3(CC2)CC(OC)c2ccccc2O3)ccc1OC(C)C (centres unmarked) [Compound 142]	≤ 2000
Cc1cc(C(F)F)n2ncc(C(=O)N3CCC4(CC3)C[C@H](OC(C)C)c3ccccc3O4)c2n1 [Compound 159]	≤ 2000
COc1cc(C(=O)N2CCC3(CC2)C[C@@H](OC(C)C)c2ccccc2O3)ccc1C(C)(C)O [Compound 57]	≤ 2000
COc1cc(C(=O)N2CCC3(CC2)CC(OC)c2ccccc2S3(=O)=O)ccc1OC(C)C (centres unmarked) [Compound 109]	> 5000
CCC1COCCN1c1ccc(C(=O)N2CCC3(CC2)C[C@@H](OC(C)C)c2cc(F)ccc2O3)nc1 (some centres unmarked) [Compound 93]	≤ 2000
CC(C)OC1CC2(CCN(C(=O)c3ccc(S(=O)(=O)C(C)C)c(C#N)c3)CC2)Oc2ccc(F)cc21 (centres unmarked) [Compound 29]	≤ 2000
COc1cc(C(=O)N2CCC3(CC2)CC(OC2CCC2)c2ccccc2O3)ccc1OC(C)C (centres unmarked) [Compound 172]	≤ 2000
Cc1cc(S(=O)(=O)C(C)C)ccc1C(=O)N1CCC2(CC1)C[C@@H](OC(C)C)c1cc(F)ccc1O2 [Compound 11]	≤ 2000
